Source: patent publication US20260256792A1, “TREATMENT OF CHRONIC SPONTANEOUS URTICARIA BY ADMINISTERING (R)-2-[3-[4-AMINO-3-(2-FLUORO-4-PHENOXY-PHENYL)PYRAZOLO[3,4-D]PYRIMIDIN-1-YL]PIPERIDINE-1-CARBONYL]-4-METHYL-4-[4-(OXETAN-3-YL)PIPERAZIN-1-YL]PENT-2-ENENITRILE” (priority 2023, published 2026)

Tested on: moderate-to-severe chronic spontaneous urticaria (CSU)
Test: Phase 2 CSU study: urticaria activity score over 7 days (UAS7)
Type: in vivo, human
Conditions: Omalizumab-Naïve
Source text: The study comprises a 12 week, randomized, double-blind, placebo-controlled, multi-center, dose-ranging efficacy and safety phase, followed by a 40 week open label extension (OLE) phase (see FIG. 1). The study consists of three phases and an optional OLE phase. […] Clinically, CSU is characterized by the spontaneous and recurrent appearance of pruritic hives. The proposed primary endpoints were the UAS7 at Week 12 in EU and EU reference countries and the ISS7 in the US. Regardless of where a participant was from, all assessments were the same. The UAS7 score is a composite score containing both the HSS7 and the ISS7. This allowed a global assessment of the two key components of urticaria: hives and itch. […] The UAS is a validated PRO measure. […] The daily UAS scores range from 0 to 6 point/day. […] Patients were to complete the UAS using the e-diary. […] The following secondary endpoints were to be analyzed using the same approach as for the primary endpoint: • Change from baseline in UAS7 at Week 4 • Change from baseline in UAS7 at Week 12 (for US and US reference countries) • Change from baseline in ISS7 at Week 12 (except US and US reference countries) • Change from baseline in HSS7 at Week 12 The following responder secondary endpoints were to be analyzed using the Cochran-Mantel-Haenszel test adjusted by region: • Proportion of participants with UAS7<6 at Week 12 • Proportion of participants with UAS7=0 at Week 12 Participants who received selected prohibited medications and/or rescue medications were to be considered as non-responders for time points after the medication usage. For other participants, all available data including those collected during the off-treatment period were to be used to determine the responder/non-responder status. Missing data were to be considered as non-responders.

[1] = Age group (years) ≥44 (Median), 400 mg QPM
[2] = Age group (years) ≥44 (Median), 400 mg TID
[3] = Age group (years) ≥65, 400 mg BID
[4] = Age group (years) ≥65, 400 mg QPM
[5] = Age group (years) ≥65, 400 mg TID
[6] = Baseline BHRA BHRA+, 400 mg BID
[7] = Baseline BHRA BHRA+, 400 mg QPM
[8] = Baseline BHRA BHRA+, 400 mg TID
[9] = Baseline BHRA BHRA−, 400 mg BID
[10] = Baseline BHRA BHRA−, 400 mg QPM
[11] = Baseline BHRA BHRA−, 400 mg TID
[12] = Baseline Eosinophils (10^9/L) <0.150, 400 mg BID
[13] = Baseline Eosinophils (10^9/L) <0.150, 400 mg TID
[14] = Baseline Eosinophils (10^9/L) <0.165 (Median), 400 mg BID
[15] = Baseline Eosinophils (10^9/L) <0.165 (Median), 400 mg QPM
[16] = Baseline Eosinophils (10^9/L) <0.165 (Median), 400 mg TID
[17] = Baseline Eosinophils (10^9/L) <0.3, 400 mg BID
[18] = Baseline Eosinophils (10^9/L) <0.3, 400 mg QPM
[19] = Baseline Eosinophils (10^9/L) <0.3, 400 mg TID
[20] = Baseline Eosinophils (10^9/L) ≥0.150, 400 mg BID
[21] = Baseline Eosinophils (10^9/L) ≥0.150, 400 mg TID
[22] = Baseline Eosinophils (10^9/L) ≥0.165 (Median), 400 mg BID
[23] = Baseline Eosinophils (10^9/L) ≥0.165 (Median), 400 mg QPM
[24] = Baseline Eosinophils (10^9/L) ≥0.165 (Median), 400 mg TID

## CC(C)(C=C(C#N)C(=O)N1CCC[C@@H](n2nc(-c3ccc(Oc4ccccc4)cc3F)c3c(N)ncnc32)C1)N1CCN(C2COC2)CC1 [rilzabrutinib, (R)-2-[3-[4-amino-3-(2-fluoro-4-phenoxy-phenyl)pyrazolo[3,4-d]pyrimidin-1-yl]piperidine-1-carbonyl]-4-methyl-4-[4-(oxetan-3-yl)piperazin-1-yl]pent-2-enenitrile]
[1]
  Change from Baseline in UAS7 at Week 12: LS Mean Diff vs. placebo (95% CI): 2.72 (−5.76, 11.20)
  Change from Baseline in UAS7 at Week 12: Mean (SD): −10.71 (7.99)
[2]
  Change from Baseline in UAS7 at Week 12: LS Mean (SE): −17.54 (2.39)
  Change from Baseline in UAS7 at Week 12: LS Mean Diff vs. placebo (95% CI): −5.98 (−13.92, 1.95)
  Change from Baseline in UAS7 at Week 12: Mean (SD): −19.17 (11.98)
[3]
  Change from Baseline in UAS7 at Week 12: LS Mean (SE): −21.85 (10.98)
  Change from Baseline in UAS7 at Week 12: Mean (SD): −29.00 (NC)^
[4]
  Change from Baseline in UAS7 at Week 12: LS Mean (SE): −1.73 (17.36)
  Change from Baseline in UAS7 at Week 12: LS Mean Diff vs. placebo (95% CI): −3.19 (−44.28, 37.89)
  Change from Baseline in UAS7 at Week 12: Mean (SD): −16.33 (NC) ^
[5]
  Change from Baseline in UAS7 at Week 12: LS Mean (SE): −23.81 (7.07)
  Change from Baseline in UAS7 at Week 12: Mean (SD): −24.13 (14.17)
[6]
  Change from Baseline in UAS7 at Week 12: LS Mean (SE): −19.58 (5.46)
  Change from Baseline in UAS7 at Week 12: LS Mean Diff vs. placebo (95% CI): −10.09 (−27.02, 6.84)
  Change from Baseline in UAS7 at Week 12: Mean (SD): −19.50 (10.03)
[7]
  Change from Baseline in UAS7 at Week 12: LS Mean (SE): −17.03 (6.45)
  Change from Baseline in UAS7 at Week 12: LS Mean Diff vs. placebo (95% CI): −7.53 (−24.53, 9.46)
  Change from Baseline in UAS7 at Week 12: Mean (SD): −19.94 (5.28)
[8]
  Change from Baseline in UAS7 at Week 12: LS Mean (SE): −22.12 (5.72)
  Change from Baseline in UAS7 at Week 12: LS Mean Diff vs. placebo (95% CI): −12.63 (−29.25, 4.00)
  Change from Baseline in UAS7 at Week 12: Mean (SD): −22.13 (16.40)
[9]
  Change from Baseline in UAS7 at Week 12: LS Mean (SE): −12.39 (2.21)
  Change from Baseline in UAS7 at Week 12: LS Mean Diff vs. placebo (95% CI): −2.42 (−8.35, 3.52)
[10]
  Change from Baseline in UAS7 at Week 12: LS Mean (SE): −8.95 (2.08)
  Change from Baseline in UAS7 at Week 12: LS Mean Diff vs. placebo (95% CI): 1.02 (−4.73, 6.78)
  Change from Baseline in UAS7 at Week 12: Mean (SD): −9.96 (9.08)
[11]
  Change from Baseline in UAS7 at Week 12: LS Mean (SE): −16.51 (2.11)
  Change from Baseline in UAS7 at Week 12: LS Mean Diff vs. placebo (95% CI): −6.53 (−12.28, −0.79)
  Change from Baseline in UAS7 at Week 12: Mean (SD): −18.52 (10.75)
Baseline BMI (kg/m^2) ≥30, 400 mg BID
  Change from Baseline in UAS7 at Week 12: LS Mean Diff vs. placebo (95% CI): −1.65 (−13.49, 10.19)
Baseline BMI (kg/m^2) ≥30, 400 mg QPM
  Change from Baseline in UAS7 at Week 12: LS Mean Diff vs. placebo (95% CI): −0.43 (−11.59, 10.72)
Baseline BMI (kg/m^2) ≥30, 400 mg TID
  Change from Baseline in UAS7 at Week 12: LS Mean Diff vs. placebo (95% CI): −7.58 (−20.66, 5.50)
[12]
  Change from Baseline in UAS7 at Week 12: LS Mean (SE): −13.60 (3.19)
  Change from Baseline in UAS7 at Week 12: LS Mean Diff vs. placebo (95% CI): −0.54 (−8.95, 7.87)
[13]
  Change from Baseline in UAS7 at Week 12: LS Mean (SE): −20.09 (3.11)
  Change from Baseline in UAS7 at Week 12: LS Mean Diff vs. placebo (95% CI): −7.04 (−15.34, 1.27)
[14]
  Change from Baseline in UAS7 at Week 12: LS Mean (SE): −14.30 (2.83)
  Change from Baseline in UAS7 at Week 12: LS Mean Diff vs. placebo (95% CI): −1.83 (−9.50, 5.84)
  Change from Baseline in UAS7 at Week 12: Mean (SD): −11.24 (8.98)
[15]
  Change from Baseline in UAS7 at Week 12: LS Mean (SE): −7.71 (2.71)
  Change from Baseline in UAS7 at Week 12: LS Mean Diff vs. placebo (95% CI): 4.76 (−2.75, 12.26)
  Change from Baseline in UAS7 at Week 12: Mean (SD): 9.46 (8.63)
[16]
  Change from Baseline in UAS7 at Week 12: LS Mean (SE): −19.82 (2.96)
  Change from Baseline in UAS7 at Week 12: LS Mean Diff vs. placebo (95% CI): −7.36 (−15.23, 0.52)
  Change from Baseline in UAS7 at Week 12: Mean (SD): −21.57 (13.01)
[17]
  Change from Baseline in UAS7 at Week 12: LS Mean (SE): −15.05 (2.31)
  Change from Baseline in UAS7 at Week 12: LS Mean Diff vs. placebo (95% CI): −4.89 (−11.04, 1.26)
  Change from Baseline in UAS7 at Week 12: Mean (SD): −14.90 (12.30)
[18]
  Change from Baseline in UAS7 at Week 12: LS Mean (SE): −9.19 (2.15)
  Change from Baseline in UAS7 at Week 12: LS Mean Diff vs. placebo (95% CI): 0.97 (−5.00, 6.93)
  Change from Baseline in UAS7 at Week 12: Mean (SD): −10.75 (8.91)
[19]
  Change from Baseline in UAS7 at Week 12: LS Mean (SE): −18.29 (2.31)
  Change from Baseline in UAS7 at Week 12: LS Mean Diff vs. placebo (95% CI): −8.14 (−14.29, −1.98)
  Change from Baseline in UAS7 at Week 12: Mean (SD): −19.99 (12.00)
[20]
  Change from Baseline in UAS7 at Week 12: LS Mean (SE): −14.57 (2.57)
  Change from Baseline in UAS7 at Week 12: LS Mean Diff vs. placebo (95% CI): −7.68 (−15.25, −0.11)
[21]
  Change from Baseline in UAS7 at Week 12: LS Mean (SE): −14.80 (2.58)
  Change from Baseline in UAS7 at Week 12: LS Mean Diff vs. placebo (95% CI): −7.92 (−15.27, −0.56)
[22]
  Change from Baseline in UAS7 at Week 12: LS Mean (SE): −14.13 (2.87)
  Change from Baseline in UAS7 at Week 12: LS Mean Diff vs. placebo (95% CI): −7.01 (−15.24, 1.22)
  Change from Baseline in UAS7 at Week 12: Mean (SD): −17.73 (14.16)
[23]
  Change from Baseline in UAS7 at Week 12: LS Mean (SE): −10.83 (2.83)
  Change from Baseline in UAS7 at Week 12: LS Mean Diff vs. placebo (95% CI): −3.71 (−11.80, 4.38)
  Change from Baseline in UAS7 at Week 12: Mean (SD): −11.84 (10.30)
[24]
  Change from Baseline in UAS7 at Week 12: LS Mean (SE): −14.63 (2.71)
  Change from Baseline in UAS7 at Week 12: LS Mean Diff vs. placebo (95% CI): −7.52 (−15.32, 0.28)
